According to patent publication US20090286802A1, “High Dose Folic Acid Compositions for Vascular Dysfunction” (priority 2005, published 2009):
“And” between values parts separate entries of the source, which are not always exact repeats. Equal entries are not always repeated.

Columns and labels:
[1] = test system: patients with ischemic heart disease; assay: Myocardial blood flow (MBF) by PET (13N-ammonia) at rest and during adenosine, folate crossover study; format: in vivo, human; settings: for effect on myocardial blood flow in NORMAL regions: folate vs. placebo
Protocol: (§1) 14 patients with ischemic heart disease, age 62±12yr. (mean±SD), were enrolled in a double-blind, placebo controlled crossover trial. Basal and adenosine-stimulated myocardial blood flow (MBF) were determined by PET and myocardial flow reserve was calculated. Each patient was studied after ingestion of placebo and after ingestion of 30 mg folic acid. Myocardial zones were prospectively defined physiologically as “NORMAL” vs “ABNORMAL” based on MBF response to Ado 140 (NORMAL=MBF>1.65 ml/min/g). ABNORMAL and NORMAL zones were analyzed separately in a patient based analysis.
(§2) Study Drug Administration. Subjects were enrolled in a double-blinded, placebo-controlled, crossover study during which folate syrup (30 mg) or similar tasting placebo syrup was administered orally in two divided doses, 10-12 hours and 1 hour prior to MBF measurements. […] Folate and placebo were administered at least one week apart, in random order, and in a double-blinded manner.
(§3) Myocardial Blood Flow Measurements. Vasoactive medications were withheld for 3-5 half-lives, and subjects were asked to avoid caffeinated beverages for 24 h before blood flow measurements. MBF was assessed with PET (GE Medical Systems Scanditronix PC4096), approximately 1-hr after ingestion of the second dose of the study drug. PET measurements of MBF (^13N-ammonia method) were performed at rest and during the infusion of two doses of adenosine (70 and 140 mcg/kg/min), using a previously described method (Huggins, G. S., et al., Circulation 1998; 98:1291-6).
PET Image Analysis: Three short axis rings corresponding to the proximal, middle and distal thirds of the left ventricle were constructed for each K1 scan and MBF was measured within 24 standard areas of interest as described previously (Huggins, G. S., et al., Circulation 1998; 98:1291-6). Data analysis was performed without knowledge of treatment order. To determine the variability of the MBF measurement, two readers independently assessed adenosine-stimulated MBF in 120 segments in 5 subjects and the difference between and within readers was calculated. The mean (±SD) intra-, and inter-observer difference was 0.03±0.10 and 0.03±0.17 ml/min/gm, respectively.
Prospective Definition of Myocardial Zones. MBF in regions supplied by stenotic conduit vessels, which were expected to have abnormal dilator capacity, were prospectively examined separately from regions with normal dilator capacity. […] Accordingly, myocardial zones were defined physiologically as “NORMAL” vs. “ABNORMAL” based on MBF response to Ado 140 during the placebo condition. Myocardial zones with MBF with Ado 140 of <1.65 ml/min/g during placebo condition were defined as ABNORMAL. The corresponding myocardial regions were identified during the folate condition, and were labeled ABNORMAL regardless of their MBF during the folate condition. Values for ABNORMAL MBF were combined and averaged to obtain a single value of ABNORMAL blood flow for each patient at each condition, (placebo and folic acid) for each scan acquisition (rest, adenosine 70, or adenosine 140). A patient-based analysis of MBF was performed.
Dilator reserve for both NORMAL and ABNORMAL zones was defined as the difference between peak MBF and rest MBF. Peak MBF was defined as the higher of the two average MBF values obtained during adenosine (i.e, the greater of the average MBF obtained during adenosine 70 vs. adenosine 140 dose). This was done, since in patients with IHD, coronary “steal” may occur (Holmvang, G., et al., Circulation 1999; 99:2510-6). and so cause underestimation of dilator reserve in ABNORMAL regions.

[2] = test system: patients with ischemic heart disease; assay: Hemodynamic variables (HR, RPP, blood pressure) at rest and during adenosine, double-blind placebo-controlled crossover study; format: in vivo, human; settings: for HR / DBP (diastolic blood pressure) / MAP (mean arterial blood pressure) / RPP (rate pressure product, SAP × HR) / SAP (systolic blood pressure): folate 30 mg oral, mean ± SD
Protocol: as §1
Patient Population: Adult male and female patients with coronary artery disease and normal serum homocysteine concentration (HCY<12 μM) were recruited from the greater Boston area. Coronary artery disease was defined as the presence of a >50% stenosis in at least one coronary artery identified by coronary arteriography within the last 5 years. Exclusion criteria included: inability to maintain a stable medical regimen during the study period, concurrent use of folic acid, or myocardial infarction or coronary intervention within the proceeding 3 months. The study protocol was approved by the local Human Research Committee and informed consent was obtained from each subject.
as §2, §3
Statistical Analysis. Data are expressed as mean±SD. A repeated measures ANOVA was performed, (Statview v 4.0, Abacus Concepts), with terms for the order of folate vs. placebo administration, patient, and observations (blood pressure, MBF and G) for the three repeated measurements (adenosine 0, 70, and 140). To control for multiple testing, prospectively defined pair-wise t-tests comparing folate to placebo at each of the three adenosine doses were performed only if there was a significant main effect for folate or a significant interaction of folate with adenosine in the ANOVA analysis. Values of P<0.05 were considered significant.

[3] = oral administration; cited from earlier work
[4] = test system: patients with stable chronic ischemic heart disease; assay: Myocardial blood flow by PET (13N-ammonia), sildenafil crossover study; format: in vivo, human; settings: for Myocardial Blood Flow: abnormal zones, sildenafil 100 mg given ~2-3 hrs before, mean ± SD
Protocol: The effects of sildenafil on myocardial blood flow were assessed. The chemical name for sildenafil is 5-[2-ethoxy-5(-4-methyl piperazine-1-ylsulfonyl)phenyl]-1-methyl-3-propyl-1,6-dihydro-7H-pyrazolo[4,3-d]pyrimidin-7-one. A study design similar to that used to test the effects of folate as described herein was used. In brief, myocardial blood flow (MBF) was measured in 14 patients with stable chronic ischemic heart disease using positron emission tomography with ^13N-ammonia. Patients were studied in double blind, placebo control, cross-over design with 100 mg sildenafil (or placebo) given ˜2-3 hrs prior to measurements of hemodynamics and myocardial blood flow at rest and during administration of adenosine at (140 μg/kg/min). Sildenafil improved myocardial blood flow in abnormal zones (Table 4). Also shown are data of the effect of folate (30 mg) on myocardial blood flow.

[5] = Ado 70, folate 30 mg oral, mean ± SD
[6] = Ado 140, folate 30 mg oral, mean ± SD
[7] = Peak, folate 30 mg oral, mean ± SD
[8] = Rest, folate 30 mg oral, mean ± SD
[9] = folate 30 mg oral, mean ± SD, listed as folate

SMILES: Nc1nc2ncc(CNc3ccc(C(=O)N[C@@H](CCC(=O)O)C(=O)O)cc3)nc2c(=O)[nH]1 [Folate, N[4-[[(2-amino-1,4-dihydro-4-oxo-6-pteridinyl)methyl]amino]benzoyl]-L-glutamic acid]
- Myocardial Blood Flow, ABNORMAL zones [1, 5]: 1.60 ± 1.15 ml/min/gm
- Myocardial Blood Flow, NORMAL zones [1, 5]: 2.01 ± 0.88 ml/min/gm
- Ratio ABN:WNL (ABNORMAL/NORMAL zone MBF) [1, 5]: 0.84 ± 0.37
- Myocardial Blood Flow, ABNORMAL zones [1, 6]: 1.76 ± 0.75 ml/min/gm
- Myocardial Blood Flow, NORMAL zones [1, 6]: 2.72 ± 0.74 ml/min/gm
- Ratio ABN:WNL (ABNORMAL/NORMAL zone MBF) [1, 6]: 0.67 ± 0.21
- Myocardial Blood Flow, ABNORMAL zones ([1]; Peak (adenosine-stimulated), folate 30 mg oral, mean ± SD): 2.16±1.01 ml/min/gm
- Myocardial Blood Flow, ABNORMAL zones ([1]; Peak (adenosine-stimulated), folate 30 mg oral, mean ± SD, listed as folic acid): 2.16±1.01 ml/min/gm
- Myocardial Blood Flow, NORMAL zones [1, 7]: 2.86 ± 0.67 ml/min/gm
- Ratio ABN:WNL (ABNORMAL/NORMAL zone MBF) [1, 7]: 0.75±0.24
- Myocardial Blood Flow, ABNORMAL zones [1, 8]: 0.74 ± 0.27 ml/min/gm
- Myocardial Blood Flow, NORMAL zones [1, 8]: 0.81 ± 0.19 ml/min/gm
- Ratio ABN:WNL (ABNORMAL/NORMAL zone MBF) [1, 8]: 0.95 ± 0.17
- patients in whom flow reserve increased in ABNORMAL zones relative to NORMAL zones ([1]; after folate): 83 % of patients
- patients in whom peak MBF increased in ABNORMAL zones relative to NORMAL zones ([1]; after folate): 85 % of patients
- Dilator Reserve (peak MBF minus rest MBF), ABNORMAL ([1]; folate 30 mg oral, mean ± SD): 1.41 ± 1.08 ml/min/gm
- Dilator Reserve (peak MBF minus rest MBF), NORMAL ([1]; folate 30 mg oral, mean ± SD): 2.12±0.69 ml/min/gm
- Dilator Reserve, Ratio ABN:WNL ([1]; folate 30 mg oral, mean ± SD): 0.63 ± 0.36
- Dilator Reserve (peak MBF minus rest MBF), ABNORMAL [1, 9]: 1.41±1.08 ml/min/gm
- Dilator Reserve (peak MBF minus rest MBF), NORMAL [1, 9]: 2.12±0.69 ml/min/gm
- increase in dilator reserve in ABNORMAL segments ([1]; folate 30 mg vs. placebo): 83%
- increase in peak MBF in ABNORMAL zones ([1]; folate 30 mg vs. placebo): 49%
- effect on myocardial blood flow in NORMAL regions [1]: did not affect
- effect on myocardial blood flow in NORMAL regions ([1]; listed as folic acid): did not change
- patients in whom ABNORMAL zone MBF improved after folate ([1]; of 13 patients with abnormal zones): 10 patients
- HR ([2]; Ado 70 (adenosine 70 μg/kg/min)): 70 ± 14 bpm
- DBP (diastolic blood pressure) ([2]; Ado 70): 68 ± 11 mmHg
- MAP (mean arterial blood pressure) ([2]; Ado 70): 95 ± 13 mmHg
- RPP (rate pressure product, SAP × HR) ([2]; Ado 70): 8604 ± 2484 mmHg × bpm
- SAP (systolic blood pressure) ([2]; Ado 70): 123 ± 18 mmHg
- HR ([2]; Ado 140 (adenosine 140 μg/kg/min)): 82 ± 15 bpm
- DBP (diastolic blood pressure) ([2]; Ado 140): 69 ± 10 mmHg
- MAP (mean arterial blood pressure) ([2]; Ado 140): 95 ± 15 mmHg
- RPP (rate pressure product, SAP × HR) ([2]; Ado 140): 9998 ± 3066 mmHg × bpm
- SAP (systolic blood pressure) ([2]; Ado 140): 120 ± 21 mmHg
- DBP (diastolic blood pressure) ([2]; Rest): 70 ± 9 mmHg
- HR ([2]; Rest): 61 ± 8 bpm
- MAP (mean arterial blood pressure) ([2]; Rest): 96±11 mmHg and 96±2 mmHg
- RPP (rate pressure product, SAP × HR) ([2]; Rest): 7483 ± 1798 mmHg × bpm
- SAP (systolic blood pressure) ([2]; Rest): 121 ± 15 mmHg
- reduction in diastolic blood pressure ([2]; folate 30 mg vs. placebo): 5 mm Hg
- change in HR ([2]; folate vs. placebo): no significant change
- change in RPP ([2]; folate vs. placebo): no significant change
- effect on systolic, diastolic and mean arterial blood pressures ([2]; folate vs. placebo, P<0.01 ANOVA): significant reduction
- patients with significant reduction in blood pressure after high-dose folate ([2]; without changes in homocysteine concentration): 11/14
- time to peak blood levels after administration [3]: 30 to 60 min

SMILES: CCCc1nn(C)c2c(=O)[nH]c(-c3cc(S(=O)(=O)N4CCN(C)CC4)ccc3OCC)nc12 [Sildenafil, 5-[2-ethoxy-5(-4-methylpiperazine-1-ylsulfonyl)phenyl]-1-methyl-3-propyl-1,6-dihydro-7H-pyrazolo[4,3-d]pyrimidin-7-one]
- Myocardial Blood Flow ([4]; Ado 140): 1.58 ± 0.55 ml/min/gm
- Myocardial Blood Flow ([4]; Rest): 0.64 ± 0.20 ml/min/gm
- effect on myocardial blood flow in abnormal zones ([4]; sildenafil 100 mg vs. placebo): improved
